The values that follow come from patent US9422363B2, “Synthetic apolipoprotein E mimicking polypeptides and methods of use” (UAB RESEARCH FOUNDATION, priority 2007, dated 2016).

In assay [1] the test system is 1% cholesterol fed NZW-rabbits. Nature of the assay: Plasma turbidity and aortic atherosclerosis (en face Oil Red O) in 1% cholesterol fed NZW rabbits. In kind it is in vivo, rabbit. The procedure: In another set of experiments it was noted that Ac-hE18A-NH2 clears the plasma turbidity in 1% cholesterol fed NZW-rabbits. 3 mg/kg of peptide was administered intravenously/week. The rabbits were sacrificed after 51 days from the start of diet. Aortas were harvested and en face analysis was done on Oil Red O stained tissue samples. […] This was associated with decrease in atherogenic lipoproteins and inhibition of atherosclerosis at day 51.

Assay [2] concerns 1% cholesterol fed NZW-rabbits. Nature of the assay: Plasma cholesterol in high fat (1% cholesterol) diet rabbits. Particulars: intravenously two times; end of 14 days (21 days after initiation of atherogenic diet); n=4; control about 2000 mg/dl. In kind it is in vivo, rabbit.
The subject of assay [3] is WHHL rabbits. Particulars: single administration; cited from earlier work.
Assay [4] has as its system ZDF (fa/fa) rats. Nature of the assay: Onset and progression of DM-2 in male ZDF (fa/fa) rats: fasting plasma glucose, insulin, adiponectin. The class given is in vivo, rat. The procedure: This example outlies studies carried out for the evaluation of the effects of these peptides in the prevention of onset and progression of DM-2. […] Baseline fasting plasma was collected prior to peptide administration. Biweekly injections (6 for Ac-hE18A-NH2 group and 5 for L-4F group were administered before day 18). From day 18-day 33, no additional peptide/vehicle injection were performed. […] (B) Corresponding insulin levels are depicted in the control and Ac-hE18A-NH2 group only. Control animals become relatively insulin resistant at day 18 as depicted by hyperinsulinemia and hyperglycemia. […] Data are expressed as Mean±SEM; *p<0.05.
Relatively infrequent injections (biweekly) of the peptides as compared to vehicle were able to improve glucose homeostasis in the ZDF rats. Form the studies it was determined that adiponectin levels in the peptide treated animals were much higher than in controls at day 33 (5.7±1 vs. […], p<0.05). […] Adiponectin also prevents the production and action of pro-inflammatory TNF-α and IL-6 and induces anti-inflammatory cytokine IL-10 and IL-1 receptor antagonist. A summary of the potential effects of the peptides on liver, pancreas, peripheral tissue, blood and blood vessel are depicted in FIG. 5.

In assay [5] the test system is WHHL rabbits. Nature of the assay: Ac-hE18A-NH2 in WHHL rabbits: plasma PON, lipid hydroperoxides, cholesterol, endothelial function. In kind it is in vivo, rabbit. Conditions: plasma of WHHL rabbits; p<0.05; FIG. 1. The text has this: These rabbits have defective LDL receptors and therefore have increased atherogenic lipoproteins (mainly LDL). […] This was associated with improved aortic endothelial function. This improvement in endothelial function was mediated in part by increase in PON activity with associated decrease in plasma lipid hydroperoxide (FIG. 1). […] PON is an anti-oxidant enzyme associated with HDL and is responsible for scavenging LOOH in plasma. The lipid lowering effects of Ac-hE18A-NH2 in 1% cholesterol fed NZW-rabbits have also been shown. These animals have elevated cholesterol that are rich in VLDL type of particles.

[6] abbreviates: 1% cholesterol fed NZW rabbits, 3 mg/kg i.v./week, day 51.
Setting [7] is: 5 mg/kg i.v. biweekly, day 18, versus control.
The mark [8] stands for this setting: day 33, no additional peptide after day 18.

Consider “Ac-LRKLRKRLLRDWLKAFYDKVAEKLKEAF-NH2 [Ac-hE18A-NH2]”, for which, in assay [1] (setting [6]), the atherogenic lipoproteins result is “decrease” and the “atherosclerosis (en face analysis of Oil Red O stained aortas)” value is listed as “inhibits”. The plasma turbidity entry in assay [1] (1% cholesterol fed NZW-rabbits, 3 mg/kg intravenously/week) is “clears”. The plasma cholesterol levels in assay [2] was roughly 1000 mg/dL. In addition, in assay [3], the LDL cholesterol result is recorded as “dramatic decrease”, the aortic endothelial function result is “improved” and the total cholesterol entry is “dramatic decrease”. For the same substance, the fasting plasma glucose result in assay [4] (5 mg/kg i.v. biweekly until day 18, day 18 and day 33, versus control) is reported as “only mild increase”. For the same substance, in assay [4] (5 mg/kg i.v. biweekly, day 18), the plasma glucose levels result is reported as “normal”. Besides, in assay [4] (setting [7]), the insulin resistance entry is listed as “much less” and the plasma insulin levels result is “lower”. The beta cell function result in assay [4] (day 18 to day 33, no additional peptide) is “relatively preserved”. Moreover, in assay [4] (setting [8]), the plasma glucose entry is “milder increase” and the plasma insulin result is on record as “increase”. In assay [5], the “HDL associated Paraoxonase (PON) activity” value is given as “increase” and the “lipid hydroperoxides (LOOH)” value is on record as “decrease”.
